In the supplement of paper PMC10883282:
± gives the standard deviation of the averaged measurements.

Key:
Experiment in all cases: relative viability vs DMSO control (72 h) (fraction); higher = more viable cells
[1] = test system: SK-LMS-1
Procedure, shortened: (§1)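 After seeding at densities set for 80–90% confluence in 384-well plates, sarcoma cell lines waited 24 h before 2.5 µl of serially diluted compound was added. Source plates held 10 mM down to 0.0002 mM. Plates were incubated 72 h at 37 °C with 5% CO2, with 0.1% DMSO vehicle and a 5 µM positive control, and relative viability was taken from ATPLite as percent growth averaged over up to triplicate wells, with 1 set as full and 0 as none.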

[2] = test system: VA-ES-BJ
Procedure, shortened: as §1

[3] = test system: KHOS-240S
Procedure, shortened: as §1

[4] = test system: A204
Procedure, shortened: as §1

[5] = test system: MES-SA
Procedure, shortened: as §1

[6] = test system: SW1353
Procedure, shortened: as §1

[7] = test system: SK-ES-1
Procedure, shortened: as §1

[8] = test system: RD
Procedure, shortened: as §1

[9] = test system: SW872
Procedure, shortened: as §1

[10] = test system: G401
Procedure, shortened: as §1

[11] = test system: HS729
Procedure, shortened: as §1

[12] = test system: SW982
Procedure, shortened: as §1

Work on COc1cc(N2CCC(N3CCN(C)CC3)CC2)ccc1Nc1ncc(Cl)c(Nc2ccccc2P(C)(C)=O)n1 [Brigatinib] yielded a relative viability ([1]; 0.00017 µM) of 1.04 ± 0.061, a relative viability ([1]; 0.00051 µM) of 1 ± 0.04 and a relative viability ([1]; 0.00152 µM) of 1.02 ± 0.022. The relative viability ([1]; 0.00457 µM) was 0.986 ± 0.04, the relative viability ([1]; 0.01372 µM) was 0.998 ± 0.019 and the relative viability ([1]; 0.04115 µM) was 1.02 ± 0.053. The relative viability ([1]; 0.1235 µM) was 1.02 ± 0.04, the relative viability ([1]; 0.3704 µM) was 0.924 ± 0.039 and the relative viability ([1]; 1.111 µM) was 0.757 ± 0.033. It also gave a relative viability ([1]; 3.333 µM) of 0.556 ± 0.009, a relative viability ([1]; 10 µM) of 0.331 ± 0.0081 and a relative viability ([2]; 0.00017 µM) of 0.946 ± 0.028. For the same compound, the relative viability ([2]; 0.00051 µM) was 0.945 ± 0.045, the relative viability ([2]; 0.00152 µM) was 0.943 ± 0.072 and the relative viability ([2]; 0.00457 µM) was 0.941 ± 0.029. It also gave a relative viability ([2]; 0.01372 µM) of 0.983 ± 0.05, a relative viability ([2]; 0.04115 µM) of 0.91 ± 0.053 and a relative viability ([2]; 0.1235 µM) of 0.865 ± 0.04. The relative viability ([2]; 0.3704 µM) was 0.662 ± 0.029, the relative viability ([2]; 1.111 µM) was 0.272 ± 0.016 and the relative viability ([2]; 3.333 µM) was 0.144 ± 0.0073. It also gave a relative viability ([2]; 10 µM) of 0.125 ± 0.0058, a relative viability ([3]; 0.00017 µM) of 1.04 ± 0.058 and a relative viability ([3]; 0.00051 µM) of 1.04 ± 0.045. The relative viability ([3]; 0.00152 µM) was 1.02 ± 0.071, the relative viability ([3]; 0.00457 µM) was 1.01 ± 0.07 and the relative viability ([3]; 0.01372 µM) was 0.989 ± 0.053. The relative viability ([3]; 0.04115 µM) was 0.978 ± 0.079, the relative viability ([3]; 0.1235 µM) was 0.92 ± 0.066 and the relative viability ([3]; 0.3704 µM) was 0.754 ± 0.035. For the same compound, the relative viability ([3]; 1.111 µM) was 0.445 ± 0.02, the relative viability ([3]; 3.333 µM) was 0.0468 ± 0.004 and the relative viability ([3]; 10 µM) was 0.0051 ± 0.0024. It also gave a relative viability ([4]; 0.00017 µM) of 1.06 ± 0.018, a relative viability ([4]; 0.00051 µM) of 1.08 ± 0.038 and a relative viability ([4]; 0.00152 µM) of 1.03 ± 0.014. For the same compound, the relative viability ([4]; 0.00457 µM) was 1.06 ± 0.022, the relative viability ([4]; 0.01372 µM) was 1.04 ± 0.03 and the relative viability ([4]; 0.04115 µM) was 1.03 ± 0.083. For the same compound, the relative viability ([4]; 0.1235 µM) was 1.06 ± 0.091, the relative viability ([4]; 0.3704 µM) was 0.991 ± 0.065 and the relative viability ([4]; 1.111 µM) was 0.692 ± 0.031. The relative viability ([4]; 3.333 µM) was 0.262 ± 0.032, the relative viability ([4]; 10 µM) was 0.0135 ± 0.0034 and the relative viability ([5]; 0.00017 µM) was 0.864 ± 0.025. The relative viability ([5]; 0.00051 µM) was 0.843 ± 0.012, the relative viability ([5]; 0.00152 µM) was 0.866 ± 0.013 and the relative viability ([5]; 0.00457 µM) was 0.893 ± 0.038. For the same compound, the relative viability ([5]; 0.01372 µM) was 0.859 ± 0.024, the relative viability ([5]; 0.04115 µM) was 0.894 ± 0.034 and the relative viability ([5]; 0.1235 µM) was 0.956 ± 0.068. For the same compound, the relative viability ([5]; 0.3704 µM) was 1.01 ± 0.064, the relative viability ([5]; 1.111 µM) was 0.948 ± 0.053 and the relative viability ([5]; 3.333 µM) was 0.385 ± 0.026. For the same compound, the relative viability ([5]; 10 µM) was 0.135 ± 0.0083, the relative viability ([6]; 0.00017 µM) was 0.909 ± 0.056 and the relative viability ([6]; 0.00051 µM) was 0.922 ± 0.018. For the same compound, the relative viability ([6]; 0.00152 µM) was 0.907 ± 0.034, the relative viability ([6]; 0.00457 µM) was 0.903 ± 0.063 and the relative viability ([6]; 0.01372 µM) was 0.896 ± 0.052. For the same compound, the relative viability ([6]; 0.04115 µM) was 0.851 ± 0.037, the relative viability ([6]; 0.1235 µM) was 0.824 ± 0.044 and the relative viability ([6]; 0.3704 µM) was 0.647 ± 0.035. For the same compound, the relative viability ([6]; 1.111 µM) was 0.449 ± 0.008, the relative viability ([6]; 3.333 µM) was 0.147 ± 0.013 and the relative viability ([6]; 10 µM) was 0.0131 ± 0.0024. The relative viability ([7]; 0.00017 µM) was 0.96 ± 0.048, the relative viability ([7]; 0.00051 µM) was 0.986 ± 0.059 and the relative viability ([7]; 0.00152 µM) was 0.971 ± 0.033. For the same compound, the relative viability ([7]; 0.00457 µM) was 0.973 ± 0.07, the relative viability ([7]; 0.01372 µM) was 1 ± 0.038 and the relative viability ([7]; 0.04115 µM) was 0.951 ± 0.026. The relative viability ([7]; 0.1235 µM) was 0.825 ± 0.021, the relative viability ([7]; 0.3704 µM) was 0.496 ± 0.028 and the relative viability ([7]; 1.111 µM) was 0.251 ± 0.015. The relative viability ([7]; 3.333 µM) was 0.0717 ± 0.0038, the relative viability ([7]; 10 µM) was 0.0369 ± 0.0031 and the relative viability ([8]; 0.00017 µM) was 1.06 ± 0.098. For the same compound, the relative viability ([8]; 0.00051 µM) was 1.06 ± 0.086, the relative viability ([8]; 0.00152 µM) was 1.07 ± 0.069 and the relative viability ([8]; 0.00457 µM) was 1.05 ± 0.047. It also gave a relative viability ([8]; 0.01372 µM) of 1.05 ± 0.051, a relative viability ([8]; 0.04115 µM) of 0.978 ± 0.056 and a relative viability ([8]; 0.1235 µM) of 0.769 ± 0.028. For the same compound, the relative viability ([8]; 0.3704 µM) was 0.459 ± 0.017, the relative viability ([8]; 1.111 µM) was 0.342 ± 0.012 and the relative viability ([8]; 3.333 µM) was 0.168 ± 0.016. It also gave a relative viability ([8]; 10 µM) of 0.0473 ± 0.014, a relative viability ([9]; 0.00017 µM) of 0.989 ± 0.023 and a relative viability ([9]; 0.00051 µM) of 0.969 ± 0.049. It also gave a relative viability ([9]; 0.00152 µM) of 0.967 ± 0.053, a relative viability ([9]; 0.00457 µM) of 0.94 ± 0.072 and a relative viability ([9]; 0.01372 µM) of 0.926 ± 0.072. It also gave a relative viability ([9]; 0.04115 µM) of 0.885 ± 0.063, a relative viability ([9]; 0.1235 µM) of 0.818 ± 0.068 and a relative viability ([9]; 0.3704 µM) of 0.626 ± 0.046. For the same compound, the relative viability ([9]; 1.111 µM) was 0.469 ± 0.035, the relative viability ([9]; 3.333 µM) was 0.321 ± 0.013 and the relative viability ([9]; 10 µM) was 0.288 ± 0.012. For the same compound, the relative viability ([10]; 0.00017 µM) was 0.983 ± 0.012, the relative viability ([10]; 0.00051 µM) was 0.972 ± 0.02 and the relative viability ([10]; 0.00152 µM) was 0.9624 ± 0.0079. It also gave a relative viability ([10]; 0.00457 µM) of 0.9721 ± 0.0044, a relative viability ([10]; 0.01372 µM) of 0.941 ± 0.037 and a relative viability ([10]; 0.04115 µM) of 0.909 ± 0.059. The relative viability ([10]; 0.1235 µM) was 0.923 ± 0.062, the relative viability ([10]; 0.3704 µM) was 0.764 ± 0.01 and the relative viability ([10]; 1.111 µM) was 0.626 ± 0.041. For the same compound, the relative viability ([10]; 3.333 µM) was 0.261 ± 0.019, the relative viability ([10]; 10 µM) was 0.0657 ± 0.0081 and the relative viability ([11]; 0.00017 µM) was 0.91 ± 0.03. The relative viability ([11]; 0.00051 µM) was 0.925 ± 0.039, the relative viability ([11]; 0.00152 µM) was 0.933 ± 0.065 and the relative viability ([11]; 0.00457 µM) was 0.909 ± 0.019. The relative viability ([11]; 0.01372 µM) was 0.858 ± 0.033, the relative viability ([11]; 0.04115 µM) was 0.771 ± 0.076 and the relative viability ([11]; 0.1235 µM) was 0.685 ± 0.083. The relative viability ([11]; 0.3704 µM) was 0.595 ± 0.061, the relative viability ([11]; 1.111 µM) was 0.417 ± 0.011 and the relative viability ([11]; 3.333 µM) was 0.199 ± 0.0042. It also gave a relative viability ([11]; 10 µM) of 0.0341 ± 0.0021, a relative viability ([12]; 0.00017 µM) of 1.03 ± 0.015 and a relative viability ([12]; 0.00051 µM) of 1.03 ± 0.024. The relative viability ([12]; 0.00152 µM) was 1.03 ± 0.011, the relative viability ([12]; 0.00457 µM) was 1.01 ± 0.03 and the relative viability ([12]; 0.01372 µM) was 0.954 ± 0.012. For the same compound, the relative viability ([12]; 0.04115 µM) was 0.869 ± 0.062, the relative viability ([12]; 0.1235 µM) was 0.695 ± 0.026 and the relative viability ([12]; 0.3704 µM) was 0.383 ± 0.013. For the same compound, the relative viability ([12]; 1.111 µM) was 0.122 ± 0.0045, the relative viability ([12]; 3.333 µM) was 0.00817 ± 0.002 and the relative viability ([12]; 10 µM) was 0.00797 ± 0.0024.
